In patent US12077503B2, “Substituted cyclic amides and their use as herbicides” (FMC CORPORATION, priority 2015, dated 2024):

What was measured:
Format in all cases: in vivo
[1] = tested on: wheat (Triticum aestivum); assay: Test A postemergence
From the text: (§1) Seeds of plant species selected from barnyardgrass (Echinochloa crus-galli), Kochia (Kochia scoparia), ragweed (common ragweed, Ambrosia elatior), ryegrass, Italian (Italian ryegrass, Lolium multiflorum), crabgrass, large (Digitaria sanguinalis), giant foxtail (Setaria faberii), green foxtail (Setaria viridis), morningglory (Ipomoea spp.), pigweed (Amaranthus retroflexus), velvetleaf (Abutilon theophrasti), wheat (Triticum aestivum), and corn (Zea mays) were planted into a blend of loam soil and sand and treated preemergence with a directed soil spray using test chemicals formulated in anon-phytotoxic solvent mixture which included a surfactant.
(§2) At the same time, plants selected from these crop and weed species and also blackgrass (Alopecurus myosuroides), and Galium (catchweed bedstraw, Galium aparine) were planted in pots containing the same blend of loam soil and sand and treated with postemergence applications of test chemicals formulated in the same manner. Plants ranged in height from 2 to 10 cm and were in the one- to two-leaf stage for the postemergence treatment. Treated plants and untreated controls were maintained in a greenhouse for approximately 10 d, after which time all treated plants were compared to untreated controls and visually evaluated for injury. Plant response ratings, summarized in Table A, are based on a 0 to 100 scale where 0 is no effect and 100 is complete control. A dash (-) response means no test result.

[2] = tested on: ragweed (common ragweed, Ambrosia elatior); assay: Test A postemergence
From the text: as §1, §2

[3] = tested on: pigweed (Amaranthus retroflexus); assay: Test A postemergence
From the text: as §1, §2

Kochia (Kochia scoparia) [4] = assay: Test A postemergence
From the text: as §1, §2

[5] = tested on: barnyardgrass (Echinochloa crus-galli); assay: Test A postemergence; conditions: for Barnyardgrass plant response rating: 125 g ai/ha, visual injury rating on 0 to 100 scale (0 no effect, 100 complete control), approx. 10 d; for Plant response rating, Barnyardgrass: 500 g ai/ha
From the text: as §1, §2

[6] = tested on: giant foxtail (Setaria faberii); assay: Test A postemergence
From the text: as §1, §2

[7] = tested on: ryegrass, Italian (Italian ryegrass, Lolium multiflorum); assay: Test A postemergence
From the text: as §1, §2

corn (Zea mays) = assay: Test A postemergence
From the text: as §1, §2

[8] = tested on: Galium (catchweed bedstraw, Galium aparine); assay: Test A postemergence
From the text: as §1, §2

[9] = tested on: blackgrass (Alopecurus myosuroides); assay: Test A postemergence; conditions: for Blackgrass plant response rating: 125 g ai/ha, visual injury rating on 0 to 100 scale (0 no effect, 100 complete control), approx. 10 d; for Plant response rating, Blackgrass: 500 g ai/ha
From the text: as §1, §2

[10] = tested on: ragweed (common ragweed, Ambrosia elatior); assay: Test A preemergence; conditions: for Plant response rating, Ragweed: 125 g ai/ha; for Ragweed plant response rating (0 to 100 scale, 0 is no effect, 100 is complete control): 500 g ai/ha, visual injury approx. 10 d
From the text: as §1, §2

[11] = tested on: pigweed (Amaranthus retroflexus); assay: Test A preemergence; conditions: for Plant response rating, Pigweed: 125 g ai/ha; for Pigweed plant response rating (0 to 100 scale, 0 is no effect, 100 is complete control): 500 g ai/ha, visual injury approx. 10 d
From the text: as §1, §2

Kochia (Kochia scoparia) [12] = assay: Test A preemergence; conditions: for Plant response rating, Kochia: 125 g ai/ha; for Kochia plant response rating (0 to 100 scale, 0 is no effect, 100 is complete control): 500 g ai/ha, visual injury approx. 10 d
From the text: as §1, §2

[13] = tested on: barnyardgrass (Echinochloa crus-galli); assay: Test A preemergence; conditions: for Plant response rating, Barnyardgrass: 125 g ai/ha; for Barnyardgrass plant response rating (0 to 100 scale, 0 is no effect, 100 is complete control): 500 g ai/ha, visual injury approx. 10 d
From the text: as §1, §2

[14] = tested on: giant foxtail (Setaria faberii); assay: Test A preemergence; conditions: for Plant response rating, Foxtail, Giant: 125 g ai/ha; for Foxtail, Giant plant response rating (0 to 100 scale, 0 is no effect, 100 is complete control): 500 g ai/ha, visual injury approx. 10 d
From the text: as §1, §2

[15] = tested on: ryegrass, Italian (Italian ryegrass, Lolium multiflorum); assay: Test A preemergence; conditions: for Plant response rating, Ryegrass, Italian: 125 g ai/ha; for Ryegrass, Italian plant response rating (0 to 100 scale, 0 is no effect, 100 is complete control): 500 g ai/ha, visual injury approx. 10 d
From the text: as §1, §2

[16] = 125 g ai/ha, postemergence, visual injury rating on 0 to 100 scale (0 no effect, 100 complete control), approx. 10 d
[17] = 500 g ai/ha, postemergence, 0 to 100 scale, 0 no effect, 100 complete control
[18] = postemergence, 0 to 100 scale, 0 no effect, 100 complete control
[19] = preemergence, 0 to 100 scale (0 no effect, 100 complete control)
[20] = 125 g ai/ha, postemergence, visual rating after approx. 10 d, 0 to 100 scale (0 no effect, 100 complete control)
[21] = Postemergence, 500 g ai/ha, 0 to 100 scale where 0 is no effect and 100 is complete control
[22] = Postemergence, 0 to 100 scale where 0 is no effect and 100 is complete control
[23] = Preemergence, visual injury after approximately 10 d, 0 to 100 scale where 0 is no effect and 100 is complete control

CC(=O)c1ccccc1NC(=O)C1C(=O)NCC1c1ccc(F)c(F)c1 (stereo not shown) [Compound 418]
0: Wheat plant response rating [1, 16] | Plant response rating, Wheat [1, 17] | Ragweed plant response rating [2, 16] | Plant response rating, Ragweed [2, 17] | Pigweed plant response rating [3, 16] | Plant response rating, Pigweed [3, 17] | Kochia plant response rating (Kochia (Kochia scoparia) [4]; [16]) | Plant response rating, Kochia (Kochia (Kochia scoparia) [4]; [17]) | Barnyardgrass plant response rating ([5]; postemergence) | Plant response rating, Barnyardgrass [5, 18] | Foxtail, Giant plant response rating [6, 16] | Plant response rating, Foxtail, Giant [6, 17] | Ryegrass, Italian plant response rating [7, 16] | Plant response rating, Ryegrass, Italian [7, 17] | Corn plant response rating (corn (Zea mays); [16]) | Plant response rating, Corn (corn (Zea mays); [17]) | Galium plant response rating [8, 16] | Plant response rating, Galium [8, 17] | Blackgrass plant response rating ([9]; postemergence) | Plant response rating, Blackgrass [9, 18] | Plant response rating, Ragweed [10, 19] | Ragweed plant response rating (0 to 100 scale, 0 is no effect, 100 is complete control) ([10]; Preemergence) | Plant response rating, Pigweed [11, 19] | Pigweed plant response rating (0 to 100 scale, 0 is no effect, 100 is complete control) ([11]; Preemergence) | Plant response rating, Kochia (Kochia (Kochia scoparia) [12]; [19]) | Kochia plant response rating (0 to 100 scale, 0 is no effect, 100 is complete control) (Kochia (Kochia scoparia) [12]; Preemergence) | Plant response rating, Barnyardgrass [13, 19] | Barnyardgrass plant response rating (0 to 100 scale, 0 is no effect, 100 is complete control) ([13]; Preemergence) | Plant response rating, Foxtail, Giant [14, 19] | Foxtail, Giant plant response rating (0 to 100 scale, 0 is no effect, 100 is complete control) ([14]; Preemergence) | Plant response rating, Ryegrass, Italian [15, 19] | Ryegrass, Italian plant response rating (0 to 100 scale, 0 is no effect, 100 is complete control) ([15]; Preemergence)

O=C(Nc1cccc(F)c1F)C1C(=O)N(C2C=CCCC2)CC1c1cccc(C(F)(F)F)c1 (stereo not shown) [Compound 525]
60: Plant response rating, Foxtail, Giant [6, 21]
0: Plant response rating, Wheat [1, 20] | Plant response rating, Wheat [1, 21] | Plant response rating, Ragweed [2, 20] | Plant response rating, Ragweed [2, 21] | Plant response rating, Pigweed [3, 20] | Plant response rating, Pigweed [3, 21] | Plant response rating, Kochia (Kochia (Kochia scoparia) [4]; [20]) | Plant response rating, Kochia (Kochia (Kochia scoparia) [4]; [21]) | Plant response rating, Ryegrass, Italian [7, 20] | Plant response rating, Ryegrass, Italian [7, 21] | Plant response rating, Corn (corn (Zea mays); [20]) | Plant response rating, Corn (corn (Zea mays); [21]) | Plant response rating, Galium [8, 20] | Plant response rating, Galium [8, 21] | Blackgrass plant response rating ([9]; postemergence) | Plant response rating, Ragweed [10, 23] | Ragweed plant response rating (0 to 100 scale, 0 is no effect, 100 is complete control) ([10]; Preemergence) | Plant response rating, Pigweed [11, 23] | Pigweed plant response rating (0 to 100 scale, 0 is no effect, 100 is complete control) ([11]; Preemergence) | Plant response rating, Kochia (Kochia (Kochia scoparia) [12]; [23]) | Kochia plant response rating (0 to 100 scale, 0 is no effect, 100 is complete control) (Kochia (Kochia scoparia) [12]; Preemergence) | Plant response rating, Ryegrass, Italian [15, 23] | Ryegrass, Italian plant response rating (0 to 100 scale, 0 is no effect, 100 is complete control) ([15]; Preemergence)
40: Barnyardgrass plant response rating ([5]; postemergence) | Plant response rating, Barnyardgrass [5, 22]
20: Plant response rating, Foxtail, Giant [6, 20]
50: Barnyardgrass plant response rating (0 to 100 scale, 0 is no effect, 100 is complete control) ([13]; Preemergence)
30: Plant response rating, Blackgrass [9, 22] | Plant response rating, Barnyardgrass [13, 23] | Plant response rating, Foxtail, Giant [14, 23]
70: Foxtail, Giant plant response rating (0 to 100 scale, 0 is no effect, 100 is complete control) ([14]; Preemergence)
